Laboratory results: article PMC12632266, “A dual L-glucose/L-galactose catabolic pathway in Luteolibacter species strain LG18” (Journal of Bacteriology, 2025)

How the values were obtained:
His6-LguH = system: T1, His6-LguH; test: coupled LguE/GAPDH, NADH formation at […] nm; type: biochemical, Luteolibacter sp. LG18; conditions: 1 mM MgCl2, 100 mM potassium phosphate pH 7.0, 25°C
T1 construct: full-length ORF, N-terminal His6 (pET28a), E. coli BL21 Star (DE3)

His6-LguE = system: T2, His6-LguE; test: coupled LDH, NADH oxidation (pyruvate production); type: biochemical, Luteolibacter sp. LG18; conditions: 100 mM potassium phosphate pH 7.0, 25°C
T2 construct: full-length ORF, N-terminal His6 (pET28a), E. coli BL21 Star (DE3)
From the text: coupled LDH, NADH oxidation (pyruvate production) on His6-LguE

His6-LguD (L-GnDH) = system: T3, His6-LguD (L-GnDH); test: NAD+ reduction at […] nm; type: biochemical, Luteolibacter sp. LG18; conditions: 10 mM Tris-HCl pH 7.5, 25°C
T3 construct: full-length ORF, N-terminal His6 (pET28a), E. coli BL21 Star (DE3); native N-terminus MKTLVLREPG

His6-LguA (L-GDH) = biological target: T4, His6-LguA (L-GDH) (Luteolibacter sp. LG18, UniProt Z9K5S2U0J3); test: NADP+ reduction at […] nm; type: biochemical; conditions: 10 mM Tris-HCl pH 7.5, 25°C
T4 construct: full-length ORF, N-terminal His6 (pET28a), E. coli BL21 Star (DE3); native N-terminus METRKLGNTGLDVSV
T4 sequence (Z9K5S2U0J3 21-349): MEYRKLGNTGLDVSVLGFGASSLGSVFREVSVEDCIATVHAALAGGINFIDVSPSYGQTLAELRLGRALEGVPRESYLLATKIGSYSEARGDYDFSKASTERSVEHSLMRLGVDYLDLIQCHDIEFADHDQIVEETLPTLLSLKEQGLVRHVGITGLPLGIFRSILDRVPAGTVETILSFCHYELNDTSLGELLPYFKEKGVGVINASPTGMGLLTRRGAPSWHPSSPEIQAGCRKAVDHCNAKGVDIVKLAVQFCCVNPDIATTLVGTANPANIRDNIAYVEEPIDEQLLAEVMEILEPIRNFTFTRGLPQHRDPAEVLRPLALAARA

Nc1ncnc2c1ncn2[C@@H]1O[C@H](COP(=O)(O)OP(=O)(O)OP(=O)(O)O)[C@@H](O)[C@H]1O [ATP]
Km (His6-LguH; 5 mM KDG, phosphate donor): 55 ± 47 µM

O=C(O)C(=O)C[C@H](O)[C@H](O)CO [KDG]
Km (His6-LguH; 10 mM PPi): 198 ± 12 µM

O=C(O)C(=O)C[C@H](O)[C@H](O)COP(=O)(O)O [KDPG]
Km (His6-LguE): 137 ± 10 µM

O=C(O)[C@@H](O)[C@H](O)[C@H](O)[C@@H](O)CO [L-galactonate]
Km (His6-LguD (L-GnDH); 1 mM NAD+): 2960 ± 230 µM

OC[C@@H]1OC(O)[C@@H](O)[C@H](O)[C@@H]1O (stereo partly drawn) [L-galactose]
Km (His6-LguA (L-GDH); 1 mM NADP+): 91.7 µM

O=C(O)[C@@H](O)[C@H](O)[C@@H](O)[C@@H](O)CO [L-gluconate]
Km (His6-LguD (L-GnDH); 1 mM NAD+): 4300 ± 340 µM

OC[C@@H]1OC(O)[C@@H](O)[C@H](O)[C@H]1O (stereo partly drawn) [L-glucose]
Km (His6-LguA (L-GDH); 1 mM NADP+): 7700 ± 490 µM

NC(=O)c1ccc[n+]([C@@H]2O[C@H](COP(=O)(O)OP(=O)(O)OC[C@H]3O[C@@H](n4cnc5c(N)ncnc54)[C@H](OP(=O)(O)O)[C@@H]3O)[C@@H](O)[C@H]2O)c1 [NADP^+]
Km (His6-LguA (L-GDH); 100 mM L-glucose): 79.3 µM

NC(=O)c1ccc[n+]([C@@H]2O[C@H](COP(=O)(O)OP(=O)(O)OC[C@H]3O[C@@H](n4cnc5c(N)ncnc54)[C@H](O)[C@@H]3O)[C@@H](O)[C@H]2O)c1 [NAD^+]
Km (His6-LguD (L-GnDH); 20 mM L-gluconate): 450 ± 30 µM

O=P(O)(O)OP(=O)(O)O [PPi]
Km (His6-LguH; 5 mM KDG, phosphate donor): 306 ± 63 µM
